Assay results as given in patent US6355799B1, “Substituted benzene compounds, process for their preparation, and herbicidal and defoliant compositions containing them” (ISK Americas Incorporated, priority 1997, dated 2002).

Legend:
Format in all cases: in vivo
[1] = tested on: velvetleaf (Abutilon theophrasti, ABUTH); assay: Pre-emerge test, greenhouse herbicide activity screening; conditions: pre-emerge, 14 days after application, rating scale 0-100
How it was run: (§1)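 Herbicidal damage is scored 0 (none) to 100 (complete plant death) two weeks after a simulated field spray. Rates span 15–1000 g ai/ha, delivered in acetone at 187 l/ha. For post-emergence treatments, plants have 2–3 leaves and the spray carries 0.25% v/v non-ionic surfactant.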

[2] = tested on: johnsongrass (Sorghum halepense, SORHA); assay: as above; conditions: pre-emerge, 14 days after application, rating scale 0-100
How it was run: as §1

[3] = tested on: lambsquarters (Chenopodium album, CHEAL); assay: as above; conditions: pre-emerge, 14 days after application, rating scale 0-100
How it was run: as §1

[4] = tested on: green foxtail (Setaria viridis, SETVI); assay: as above; conditions: pre-emerge, 14 days after application, rating scale 0-100
How it was run: as §1

[5] = tested on: ivyleaf morningglory (Ipomoea hederacea, IPOHE); assay: as above; conditions: pre-emerge, 14 days after application, rating scale 0-100
How it was run: as §1

[6] = tested on: sicklepod (Cassia obtusifolia, CASOB); assay: as above; conditions: pre-emerge, 14 days after application, rating scale 0-100
How it was run: as §1

[7] = tested on: barnyardgrass (Echinochloa crus-galli, ECHCG); assay: as above; conditions: pre-emerge, 14 days after application, rating scale 0-100
How it was run: as §1

[8] = tested on: large crabgrass (Digitaria sanguinalis, DIGSA); assay: as above; conditions: pre-emerge, 14 days after application, rating scale 0-100
How it was run: as §1

[9] = tested on: upland rice (Oryza sp., var. Tebonnet, RICE); assay: Pre-emerge test, crop safety; conditions: pre-emerge, 14 days after application, rating scale 0-100
How it was run: (§2)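 Sandy loam pots; pre-emerge: sown 1 d pre-spray, surface-watered after, then bottom-watered. Post-emerge: sown 8–21 d before, 2–3 leaf stage, + 0.25% v/v NIS, bottom-watered. Acetone, 187 l/ha track spray, 15–1000 g ai/ha. 0–100 injury score, day 14.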

[10] = tested on: field corn (Zea mays L., var. Dekalb 535, CORN); assay: Pre-emerge test, crop safety; conditions: pre-emerge, 14 days after application, rating scale 0-100
How it was run: as §2

[11] = tested on: redroot pigweed (Amaranthus retroflexus, AMARE); assay: Pre-emerge test, greenhouse herbicide activity screening; conditions: pre-emerge, 14 days after application, rating scale 0-100
How it was run: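 Rating: 0–100 visual injury, 14 DAA. Application: acetone, 187 l/ha, 15–1000 g ai/ha, flat-fan track sprayer with nozzle 40–45 cm above soil or canopy. Post-emerge runs used 0.25% v/v surfactant on 2–3 leaf plants.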

[12] = tested on: upland rice (Oryza sp., var. Tebonnet, RICE); assay: Post-emerge test, crop safety; conditions: post-emerge, 14 days after application, rating scale 0-100
How it was run: as §1

[13] = tested on: field corn (Zea mays L., var. Dekalb 535, CORN); assay: Post-emerge test, crop safety; conditions: post-emerge, 14 days after application, rating scale 0-100
How it was run: as §1

[14] = tested on: velvetleaf (Abutilon theophrasti, ABUTH); assay: Post-emerge test, greenhouse herbicide activity screening; conditions: post-emerge, 14 days after application, rating scale 0-100
How it was run: as §1

[15] = tested on: johnsongrass (Sorghum halepense, SORHA); assay: as above; conditions: post-emerge, 14 days after application, rating scale 0-100
How it was run: as §1

[16] = tested on: lambsquarters (Chenopodium album, CHEAL); assay: as above; conditions: post-emerge, 14 days after application, rating scale 0-100
How it was run: as §1

[17] = tested on: green foxtail (Setaria viridis, SETVI); assay: as above; conditions: post-emerge, 14 days after application, rating scale 0-100
How it was run: as §1

[18] = tested on: redroot pigweed (Amaranthus retroflexus, AMARE); assay: as above; conditions: post-emerge, 14 days after application
How it was run: as §1

[19] = tested on: ivyleaf morningglory (Ipomoea hederacea, IPOHE); assay: as above; conditions: post-emerge, 14 days after application, rating scale 0-100
How it was run: as §1

[20] = tested on: sicklepod (Cassia obtusifolia, CASOB); assay: as above; conditions: post-emerge, 14 days after application, rating scale 0-100
How it was run: as §1

[21] = tested on: barnyardgrass (Echinochloa crus-galli, ECHCG); assay: as above; conditions: post-emerge, 14 days after application, rating scale 0-100
How it was run: as §1

[22] = tested on: large crabgrass (Digitaria sanguinalis, DIGSA); assay: as above; conditions: post-emerge, 14 days after application, rating scale 0-100
How it was run: as §1

[23] = 63 g ai/ha, rating scale 0-100 (0 no damage, 100 complete death)
[24] = 250 g ai/ha, rating scale 0-100

COc1cc(Cl)cc(Cl)c1-n1c(=O)cc(C(F)(F)F)n(C)c1=O [16-2]
30: phytotoxicity rating SORHA ([2]; 250 g ai/ha) | Post-emerge Herbicidal Activity CHEAL (phytotoxicity rating) ([16]; 63 g ai/ha)
70: Post-emerge Herbicidal Activity ABUTH (phytotoxicity rating) ([14]; 250 g ai/ha) | Post-emerge Herbicidal Activity CHEAL (phytotoxicity rating) ([16]; 250 g ai/ha)
40: phytotoxicity rating AMARE ([11]; 63 g ai/ha) | Post-emerge Herbicidal Activity ABUTH (phytotoxicity rating) ([14]; 63 g ai/ha)
10: phytotoxicity rating SETVI ([4]; 63 g ai/ha) | phytotoxicity rating IPOHE ([5]; 63 g ai/ha) | phytotoxicity rating ECHCG ([7]; 250 g ai/ha) | Post-emerge Herbicidal Activity CORN (crop damage rating) ([13]; 250 g ai/ha) | Post-emerge Herbicidal Activity CASOB (phytotoxicity rating) ([20]; 250 g ai/ha)
60: phytotoxicity rating SETVI ([4]; 250 g ai/ha) | phytotoxicity rating CASOB ([6]; 250 g ai/ha) | Post-emerge Herbicidal Activity AMARE (phytotoxicity rating) [18, 23] | Post-emerge Herbicidal Activity AMARE (phytotoxicity rating) [18, 24]
80: phytotoxicity rating CHEAL ([3]; 63 g ai/ha)
75: phytotoxicity rating ABUTH ([1]; 63 g ai/ha)
50: phytotoxicity rating IPOHE ([5]; 250 g ai/ha) | phytotoxicity rating DIGSA ([8]; 250 g ai/ha)
20: Post-emerge Herbicidal Activity RICE (crop damage rating) ([12]; 250 g ai/ha)
100: phytotoxicity rating ABUTH ([1]; 250 g ai/ha) | phytotoxicity rating CHEAL ([3]; 250 g ai/ha) | phytotoxicity rating AMARE ([11]; 250 g ai/ha)
0: phytotoxicity rating SORHA ([2]; 63 g ai/ha) | phytotoxicity rating CASOB ([6]; 63 g ai/ha) | phytotoxicity rating ECHCG ([7]; 63 g ai/ha) | phytotoxicity rating DIGSA ([8]; 63 g ai/ha) | phytotoxicity rating RICE ([9]; 63 g ai/ha) | phytotoxicity rating RICE ([9]; 250 g ai/ha) | phytotoxicity rating CORN ([10]; 63 g ai/ha) | phytotoxicity rating CORN ([10]; 250 g ai/ha) | Post-emerge Herbicidal Activity RICE (crop damage rating) ([12]; 63 g ai/ha) | Post-emerge Herbicidal Activity CORN (crop damage rating) ([13]; 63 g ai/ha) | Post-emerge Herbicidal Activity SORHA (phytotoxicity rating) ([15]; 63 g ai/ha) | Post-emerge Herbicidal Activity SORHA (phytotoxicity rating) ([15]; 250 g ai/ha) | Post-emerge Herbicidal Activity SETVI (phytotoxicity rating) ([17]; 63 g ai/ha) | Post-emerge Herbicidal Activity SETVI (phytotoxicity rating) ([17]; 250 g ai/ha) | Post-emerge Herbicidal Activity IPOHE (phytotoxicity rating) ([19]; 63 g ai/ha) | Post-emerge Herbicidal Activity IPOHE (phytotoxicity rating) ([19]; 250 g ai/ha) | Post-emerge Herbicidal Activity CASOB (phytotoxicity rating) ([20]; 63 g ai/ha) | Post-emerge Herbicidal Activity ECHCG (phytotoxicity rating) ([21]; 63 g ai/ha) | Post-emerge Herbicidal Activity ECHCG (phytotoxicity rating) ([21]; 250 g ai/ha) | Post-emerge Herbicidal Activity DIGSA (phytotoxicity rating) ([22]; 63 g ai/ha) | Post-emerge Herbicidal Activity DIGSA (phytotoxicity rating) ([22]; 250 g ai/ha)

COc1c(Cl)cc(F)c(-n2c(=O)cc(C(F)(F)F)n(C)c2=O)c1NN=CCc1ccccc1 [15-15]
45: Post-emerge Herbicidal Activity CORN (crop damage rating) ([13]; 63 g ai/ha)
99: Post-emerge Herbicidal Activity SORHA (phytotoxicity rating) ([15]; 250 g ai/ha)
30: Post-emerge Herbicidal Activity SORHA (phytotoxicity rating) ([15]; 63 g ai/ha) | Post-emerge Herbicidal Activity ECHCG (phytotoxicity rating) ([21]; 63 g ai/ha)
40: Post-emerge Herbicidal Activity SETVI (phytotoxicity rating) ([17]; 63 g ai/ha) | Post-emerge Herbicidal Activity DIGSA (phytotoxicity rating) ([22]; 63 g ai/ha)
70: Post-emerge Herbicidal Activity RICE (crop damage rating) ([12]; 63 g ai/ha)
80: Post-emerge Herbicidal Activity CASOB (phytotoxicity rating) ([20]; 63 g ai/ha)
95: phytotoxicity rating RICE ([9]; 63 g ai/ha) | phytotoxicity rating CORN ([10]; 63 g ai/ha) | Post-emerge Herbicidal Activity RICE (crop damage rating) ([12]; 250 g ai/ha) | Post-emerge Herbicidal Activity SETVI (phytotoxicity rating) ([17]; 250 g ai/ha)
100: phytotoxicity rating ABUTH ([1]; 63 g ai/ha) | phytotoxicity rating ABUTH ([1]; 250 g ai/ha) | phytotoxicity rating SORHA ([2]; 63 g ai/ha) | phytotoxicity rating SORHA ([2]; 250 g ai/ha) | phytotoxicity rating CHEAL ([3]; 63 g ai/ha) | phytotoxicity rating CHEAL ([3]; 250 g ai/ha) | phytotoxicity rating SETVI ([4]; 63 g ai/ha) | phytotoxicity rating SETVI ([4]; 250 g ai/ha) | phytotoxicity rating IPOHE ([5]; 63 g ai/ha) | phytotoxicity rating IPOHE ([5]; 250 g ai/ha) | phytotoxicity rating CASOB ([6]; 63 g ai/ha) | phytotoxicity rating CASOB ([6]; 250 g ai/ha) | phytotoxicity rating ECHCG ([7]; 63 g ai/ha) | phytotoxicity rating ECHCG ([7]; 250 g ai/ha) | phytotoxicity rating DIGSA ([8]; 63 g ai/ha) | phytotoxicity rating DIGSA ([8]; 250 g ai/ha) | phytotoxicity rating RICE ([9]; 250 g ai/ha) | phytotoxicity rating CORN ([10]; 250 g ai/ha) | phytotoxicity rating AMARE ([11]; 63 g ai/ha) | phytotoxicity rating AMARE ([11]; 250 g ai/ha) | Post-emerge Herbicidal Activity ABUTH (phytotoxicity rating) ([14]; 63 g ai/ha) | Post-emerge Herbicidal Activity ABUTH (phytotoxicity rating) ([14]; 250 g ai/ha) | Post-emerge Herbicidal Activity CHEAL (phytotoxicity rating) ([16]; 63 g ai/ha) | Post-emerge Herbicidal Activity CHEAL (phytotoxicity rating) ([16]; 250 g ai/ha) | Post-emerge Herbicidal Activity AMARE (phytotoxicity rating) [18, 23] | Post-emerge Herbicidal Activity AMARE (phytotoxicity rating) [18, 24] | Post-emerge Herbicidal Activity IPOHE (phytotoxicity rating) ([19]; 250 g ai/ha) | Post-emerge Herbicidal Activity CASOB (phytotoxicity rating) ([20]; 250 g ai/ha) | Post-emerge Herbicidal Activity ECHCG (phytotoxicity rating) ([21]; 250 g ai/ha) | Post-emerge Herbicidal Activity DIGSA (phytotoxicity rating) ([22]; 250 g ai/ha)
90: Post-emerge Herbicidal Activity CORN (crop damage rating) ([13]; 250 g ai/ha) | Post-emerge Herbicidal Activity IPOHE (phytotoxicity rating) ([19]; 63 g ai/ha)
